Values quoted from earlier work as cited in US11752142B2, “Oral pharmaceutical compositions of dabigatran etexilate” (Breckenridge Pharmaceutical, Inc., priority 2012, dated 2023).
Where a name gives a salt, the structure may show the parent alone. Read-outs that look alike come from different tables or passages of the source. Each block holds one molecule with its values, some of them ahead of it.

Columns and labels:
[1] = not given; remark: listed apart in the source
[2] = not given; remark: listed apart in the source

- aqueous solubility (acidic media): rather high solubility
- aqueous solubility (neutral and basic media): very poor solubility
- BCS class (poor aqueous solubility but good membrane permeability): BCS Class II
- sensitivity to light irradiation ([1]; light irradiation): not sensitive to light irradiation
- stability ([1]; solid state): stable in the solid state
SMILES: CCCCCCOC(=O)NC(=N)c1ccc(NCc2nc3cc(C(=O)N(CCC(=O)OCC)c4ccccn4)ccc3n2C)cc1 [DEM, dabigatran etexilate mesylate]

- absolute bioavailability ([2]; dabigatran following oral administration of dabigatran etexilate): 3-7%
- elimination half life ([2]; following oral administration of dabigatran etexilate): 12 to 17 h
SMILES: [H]/N=C(/N)c1ccc(NCc2nc3cc(C(=O)N(CCC(=O)O)c4ccccn4)ccc3n2C)cc1 [dabigatran]

- Tmax ([2]; absorption of the active): 45 minutes-1 hour
SMILES: CCCCCCOC(=O)NC(=N)c1ccc(NCc2nc3cc(C(=O)N(CCC(=O)OCC)c4ccccn4)ccc3n2C)cc1 [dabigatran etexilate, 3-[(2-{4-(hexyloxycarbonylamino-imino-methyl)-phenylamino]methyl}-1-methyl-1H-benzimidazol-5-carbonyl)-pyridin-2-yl-amino-propionic acid ethyl ester]
